ChEMBL document CHEMBL5608252, “New Potent Sulfonamide-Based Inhibitors of S. aureus Biotin Protein Ligase” (ACS Med Chem Lett, 2024)
Converted amounts (≈) assume the structure as drawn.

Tests used:
Staphylococcus aureus [1] = experiment: Antibacterial activity against methicillin-susceptible Staphylococcus aureus ATCC 49775 incubated for 16 to 20 hrs by CLSI based broth microdilution method; format: functional; settings: time 16-20 hrs
[2] = Inhibition of Staphylococcus aureus BPL assessed as inhibition constant by biotinylation assay
Staphylococcus aureus [3] = experiment: Antibacterial activity against methicillin-resistant Staphylococcus aureus USA300 incubated for 16 to 20 hrs by CLSI based broth microdilution method; format: functional; settings: time 16-20 hrs
Staphylococcus aureus [4] = experiment: Antibacterial activity against methicillin-resistant Staphylococcus aureus […] incubated for 16 to 20 hrs by CLSI based broth microdilution method; format: functional; settings: time 16-20 hrs
Staphylococcus aureus [5] = experiment: Antibacterial activity against methicillin-susceptible Staphylococcus aureus ATCC 29213 incubated for 16 to 20 hrs by CLSI based broth microdilution method; format: functional; settings: time 16-20 hrs

SMILES: Nc1ncnc2c1ncn2CCCCS(=O)(=O)NC(=O)OCCCCC[C@@H]1SC[C@@H]2NC(=O)N[C@@H]21
- MIC (Staphylococcus aureus [1]): > 256 µg/mL
- Ki [2]: 10.3 nM
- MIC (Staphylococcus aureus [3]): > 256 µg/mL
- MIC (Staphylococcus aureus [4]): > 256 µg/mL
- MIC (Staphylococcus aureus [5]): > 256 µg/mL

SMILES: Nc1ncnc2c1ncn2CCCCNS(=O)(=O)NC(=O)NCCCC[C@@H]1SC[C@@H]2NC(=O)N[C@@H]21
- Ki [2]: 65 nM

SMILES: Nc1ncnc2c1ncn2CCCCNS(=O)(=O)NC(=O)CCCC[C@@H]1SC[C@@H]2NC(=O)N[C@@H]21
- Ki [2]: 7 nM

SMILES: Nc1ncnc2c1ncn2CCCCCS(=O)(=O)NC(=O)NCCCC[C@@H]1SC[C@@H]2NC(=O)N[C@@H]21
- MIC (Staphylococcus aureus [1]): 16 µg/mL (≈ 30.4 µM)
- Ki [2]: 57.2 nM
- MIC (Staphylococcus aureus [3]): 16 µg/mL (≈ 30.4 µM)
- MIC (Staphylococcus aureus [4]): 16 µg/mL (≈ 30.4 µM)
- MIC (Staphylococcus aureus [5]): 16 µg/mL (≈ 30.4 µM)

SMILES: Nc1ncnc2c1ncn2CCCCOS(=O)(=O)NC(=O)NCCCC[C@@H]1SC[C@@H]2NC(=O)N[C@@H]21
- MIC (Staphylococcus aureus [1]): 32 µg/mL (≈ 60.6 µM)
- Ki [2]: 35.3 nM
- MIC (Staphylococcus aureus [3]): 32 µg/mL (≈ 60.6 µM)
- MIC (Staphylococcus aureus [4]): 16 µg/mL (≈ 30.3 µM)
- MIC (Staphylococcus aureus [5]): 32 µg/mL (≈ 60.6 µM)

SMILES: Nc1ncnc2c1ncn2CCCNS(=O)(=O)NC(=O)OCCCCC[C@@H]1SC[C@@H]2NC(=O)N[C@@H]21
- MIC (Staphylococcus aureus [1]): 32 µg/mL (≈ 60.6 µM)
- Ki [2]: 20.1 nM
- MIC (Staphylococcus aureus [3]): 32 µg/mL (≈ 60.6 µM)
- MIC (Staphylococcus aureus [4]): 16 µg/mL (≈ 30.3 µM)
- MIC (Staphylococcus aureus [5]): 32 µg/mL (≈ 60.6 µM)
